The values below come from patent publication US20170165236A1, “SELECTIVE SPHINGOSINE 1 PHOSPHATE RECEPTOR MODULATORS AND COMBINATION THERAPY THEREWITH” (Celgene International II Sàrl, priority 2013, published 2017).

One series addresses S1P1/EDG1 (Homo sapiens, UniProt P21453). The experiment in a line: S1P1 CRE-bla CHOK1 reporter assay, inhibition of Forskolin induced cAMP. Particulars: CRE-bla CHOK1 cells, with Forskolin; read-out: S1P1 agonist value (EC50). The series is classed as cell-based. The method, then:
Generation of S1P1-Mediated Inhibition of cAMP Reporter Assay
S1P1/pcDNA3.1 was transfected into the CRE-bla CHO K1 (Invitrogen) cell line, and stable single cell clones were selected using standard techniques.
S1P1 CRE-Bla CHOK1 Reporter Assay—Characterization of S1P1 Agonists
Cells were seeded into 384-well black wall/clear bottom plates at 10^4 cells/well/19.5 μl assay media (DMEM-phenol free, 0.5% charcoal/dextran stripped serum, 2 mM glutamine, 0.1 mM NEAA, 1 mM Na-Pyruvate, 25 mM Hepes) and incubated for 18 hrs at 37° C. in 5% CO2. Dose response curves (10-point) were generated in 10 mM Hepes, 0.1% Pluronic F127, in the presence of Forskolin. Cells were treated with 0.5 μl compound in the presence of 2 μM Forskolin for 4 hrs at 37° C. The FRET-based β-lactamase fluorescent substrate (LiveBLAzer™-FRET B/G Loading Kit CC4-AM; Invitrogen) was prepared according to manufacturer's directions, and incubated with cells for 2 hrs at room temperature. […] Data was analyzed by non-linear regression to determine the EC50 for inhibition of Forskolin induced cAMP.

A further series concerns the target T1, S1P2 (Homo sapiens, UniProt O95136).
T1 construct: expressed in transfected cells; host or cells: CRE-bla CHOK1
Description: Specificity over other S1P receptors: S1P2 CRE-bla CHOK1. The series is classed as cell-based. To be noted: S1P2 CRE-bla CHOK1, without Forskolin; read-out: S1P2 agonist value (EC50). The method, then: (§1) Cells were seeded into 384-well black wall/clear bottom plates at 10^4 cells/well/19.5 μl assay media (DMEM-phenol free, 0.5% charcoal/dextran stripped serum, 2 mM glutamine, 0.1 mM NEAA, 1 mM Na-Pyruvate, 25 mM Hepes) and incubated for 18 hrs at 37° C. in 5% CO2. Dose response curves (10-point) were generated in 10 mM Hepes, 0.1% Pluronic F127, in the presence of Forskolin. Cells were treated with 0.5 μl compound in the presence of 2 μM Forskolin for 4 hrs at 37° C. The FRET-based β-lactamase fluorescent substrate (LiveBLAzer™-FRET B/G Loading Kit CC4-AM; Invitrogen) was prepared according to manufacturer's directions, and incubated with cells for 2 hrs at room temperature. Plates were read at Ex:410/Em:458 and Ex:410/Em:522, and the response ratio determined. Data was analyzed by non-linear regression to determine the EC50 for inhibition of Forskolin induced cAMP.
(§2) To assess compound specificity on other S1P receptors the following cell lines were used: S1P2 CRE-bla CHOK1, S1P3-Gα15 NFAT-bla HEK293T (Invitrogen), S1P4-bla TANGO U2OS (Invitrogen), S1P5-bla TANGO U2OS (Invitrogen). The same assay set up for S1P1 was used but without Forskolin. S1P4 and S1P5 assays were performed in FreeStyle Expression medium (Invitrogen). S1P5 cells were incubated for 48 hrs in prior to treatment with compound.

For another series, the target named is T2, S1P4 (Homo sapiens, UniProt O95977).
T2 construct: fused on or other part: Tango handle at the receptor's C-terminus: a TEV protease cleavage site and the Gal4-VP16 transcription factor, possibly a V2 vasopressin receptor tail; The cells also carry a beta-arrestin/TEV protease fusion and a UAS-beta-lactamase reporter
T2 sequence (O95977 1-384): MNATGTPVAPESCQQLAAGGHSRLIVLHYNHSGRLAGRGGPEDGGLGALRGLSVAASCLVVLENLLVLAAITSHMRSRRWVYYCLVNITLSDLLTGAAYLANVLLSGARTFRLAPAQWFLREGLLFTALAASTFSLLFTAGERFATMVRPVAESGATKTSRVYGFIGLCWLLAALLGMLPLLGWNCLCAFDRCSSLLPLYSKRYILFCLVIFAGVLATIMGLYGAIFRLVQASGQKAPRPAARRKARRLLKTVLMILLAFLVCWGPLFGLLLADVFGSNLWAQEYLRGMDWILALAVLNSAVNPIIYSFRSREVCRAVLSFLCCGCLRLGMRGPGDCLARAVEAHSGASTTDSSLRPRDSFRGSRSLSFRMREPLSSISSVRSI
Description: Specificity over other S1P receptors: S1P4-bla TANGO U2OS. Format: cell-based. To be noted: without Forskolin, read-out: S1P4 agonist value (EC50). The procedure: as §1, §2

For another series, the target named is T3, S1P5 (Homo sapiens, UniProt Q9H228).
T3 construct: fused on or other part: Tango handle at the receptor's C-terminus: a TEV protease cleavage site and the Gal4-VP16 transcription factor, possibly a V2 vasopressin receptor tail; The cells also carry a beta-arrestin/TEV protease fusion and a UAS-beta-lactamase reporter
The experiment in a line: Specificity over other S1P receptors: S1P5-bla TANGO U2OS. Format: cell-based. Particulars: without Forskolin, read-out: S1P5 agonist value (EC50). The method, then:
as §1, §2

The test system of the next series is peripheral T-cell counts. The experiment in a line: Lymphopenia in rats, multiple dose. The series is classed as in vivo. To be noted: 24 hours after final dose of a 3-5 day multiple dose regimen. The procedure: In rats: Female rats (Simonsen Laboratories, Gilroy Calif.) were housed in an ALAAC accredited facility and the research was approved by the facilities Institutional Animal Care and Use Committee (IACUC). The animals were acclimated to the laboratory for at least 5 days prior to initiation of experiments. Rats (n=3/compound/time-point) were dosed by oral gavage with 1 mg/kg compound formulated in a vehicle consisting of 5% DMSO/5% Tween 20 and 90% 0.1N HCL. Control rats were dosed PO with the vehicle. Whole blood was collected from isoflurane anesthetized rats via the retro-orbital sinus and terminal samples were collected by cardiac puncture into EDTA. Whole blood was incubated with mouse anti-rat CD32 (BD #550271), PE-mouse anti-rat CD45R/B220 (BD #554881), PECy5-mouse anti-rat CD4 (BD #554839), and APC-mouse anti-rat CD8a (eBioscience #17-0084) for 30 minutes on ice. Red blood cells were lysed using BD Pharm Lyse Lysing buffer (#555899) and white blood cells were analyzed with a BD FACSArray. Lymphopenia was expressed as the % of white blood cells that were CD4 or CD8 positive T cells. […]
Prior to the conduct of toxicology studies, the effect of three to five daily doses of each compound on peripheral T-cell counts of female rats was determined (see lymphopenia measurements in rats above). […]

Series [1] can be described thus: Therapeutic index, 5 or 14 day toxicology studies in rats (lung to body weight). Format: in vivo, Sprague-Dawley rats. The procedure:
All studies were conducted in non-fasted male and female Sprague-Dawely rats (Simonsen Laboratories). Rats were housed in an AAALAC accredited facility and the research was approved by the facilities Institutional Animal Care and Use Committee (IACUC). The animals were acclimated to the laboratory for at least 5 days prior to initiation of experiments.
The compounds listed in Table 6 were formulated as suspensions in a vehicle consisting of 0.5% carboxymethyl cellulose (Acros Organics) in purified water (pH adjusted to ˜2.2 with hydrochloric acid). The same formulation was used in the rat lymphopenia and toxicology studies described below. The concentration of each compound in suspension was verified to be within ±10% of the target concentration by HPLC-UV.
Prior to the conduct of toxicology studies, the effect of three to five daily doses of each compound on peripheral T-cell counts of female rats was determined (see lymphopenia measurements in rats above). In these lymphopenia studies, blood samples were collected onto EDTA at intervals after the final study dose. The collection times were not identical for each study; however, all studies included a sample collected 24 hours after the final dose. The lymphopenia data was used as a biomarker to select equally pharmacologically active doses for the subsequent toxicology study. […]

T3 sequence (Q9H228 whole entry, the tested form may be a part): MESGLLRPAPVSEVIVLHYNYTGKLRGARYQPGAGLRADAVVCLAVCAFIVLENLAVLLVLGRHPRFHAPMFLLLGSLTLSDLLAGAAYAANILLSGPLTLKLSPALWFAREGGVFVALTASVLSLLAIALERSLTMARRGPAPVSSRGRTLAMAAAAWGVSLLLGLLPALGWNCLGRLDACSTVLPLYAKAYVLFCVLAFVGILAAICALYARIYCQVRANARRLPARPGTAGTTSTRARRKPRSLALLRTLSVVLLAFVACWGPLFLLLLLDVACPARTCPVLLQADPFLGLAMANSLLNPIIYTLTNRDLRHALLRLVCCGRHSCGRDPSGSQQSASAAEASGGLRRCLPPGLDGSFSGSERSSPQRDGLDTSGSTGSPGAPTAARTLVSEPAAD
S1P1/EDG1, sequence (P21453 whole entry): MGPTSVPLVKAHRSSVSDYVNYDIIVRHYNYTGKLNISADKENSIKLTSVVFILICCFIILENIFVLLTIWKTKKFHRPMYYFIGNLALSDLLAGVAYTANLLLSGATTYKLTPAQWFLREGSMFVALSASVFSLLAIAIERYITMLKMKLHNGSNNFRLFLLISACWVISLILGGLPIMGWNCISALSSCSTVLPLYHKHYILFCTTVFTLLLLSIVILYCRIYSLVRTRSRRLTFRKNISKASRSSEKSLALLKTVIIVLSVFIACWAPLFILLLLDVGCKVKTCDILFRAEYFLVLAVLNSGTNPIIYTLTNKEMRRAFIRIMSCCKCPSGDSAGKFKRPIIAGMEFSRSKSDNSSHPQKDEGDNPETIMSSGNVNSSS
T1 sequence (O95136 whole entry, species assumed): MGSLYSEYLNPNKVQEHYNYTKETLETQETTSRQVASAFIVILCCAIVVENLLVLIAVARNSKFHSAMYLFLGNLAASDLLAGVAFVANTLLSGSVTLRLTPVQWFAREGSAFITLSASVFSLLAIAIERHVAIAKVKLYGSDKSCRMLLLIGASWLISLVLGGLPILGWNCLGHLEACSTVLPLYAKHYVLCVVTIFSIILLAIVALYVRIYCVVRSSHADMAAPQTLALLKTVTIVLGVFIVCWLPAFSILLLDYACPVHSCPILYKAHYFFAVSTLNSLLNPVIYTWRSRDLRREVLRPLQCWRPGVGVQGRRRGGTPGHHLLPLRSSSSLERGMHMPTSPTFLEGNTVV

Regarding `CC(C)Oc1ccc(-c2nc(-c3cccc4c3CCC4NS(=O)(=O)CCO)no2)cc1C#N` (stereo in doubt) [Compound 186, (R)—N-(4-(5-(3-cyano-4-isopropoxyphenyl)-1,2,4-oxadiazol-3-yl)-2,3-dihydro-1H-inden-1-yl)-2-hydroxyethanesulfonamide], the concentration for a half-maximal effect (EC50) worked out at 0.05 nM at S1P1/EDG1, 1570 nM at S1P2, 1210 nM at S1P4 and 32.3 nM at S1P5. In addition, the “Dose Producing 50% lymphopenia” value in the series on peripheral T-cell counts stood at 0.07 mg/kg. Moreover, the “TI 5 days” value in series [1] (5 day toxicology study, dose for 10% lung weight increase / dose for 50% T-cell depletion) was found to be 16. Also, the “Dose Resulting in 10% increase in lung weight” value in series [1] (oral, 5 or 14 consecutive days, interpolated from dose versus lung to body weight) is 1.1 mg/kg.
